Peptide text beside a SMILES is read from it.
Columns and labels:
[1] = test system: sMAC signalling (sestrin 1, 2 and 3 expression, AMPK and MAPK phosphorylation); test: Immunoblot of sMAC signalling in CD4+ T cells treated with DOS compounds (heat-map); type: cell-based, human
Description: CD4+ T cells were isolated from PBMCs from healthy donors, treated with DOS compounds for 4 hours and harvested for immunoblot analysis. The heat-map of Sestrin 1, Sestrin 2, Sestrin 3, p-mTOR1, p-JNK, p-AMPK, p-ERK1/2, and p-p38, represents the mean of three to nine experiments. Histone 3 was used as a control.
• 1. CD4+ cells were separated from PBMC using appropriate microbeads kit (Miltenyi) • 2. Cells were resuspended in whole RPMI medium and plated in the 24-multiwell plate • 3. Then activated for 4 hrs with DOS compounds • 4. Cells were then harvested, washed with PBS and resuspended in lysis buffer (RIPA with […]) • 5. The cell-lysis mix was incubated for 20 mins on ice • 6. Samples were centrifuged for 20 mins at the max speed • 7. The supernatant was collected and Lemmli buffer+β-Mercaptoethanol was added • 8. Samples were then boiled for 5 mins at 95° C. • 9. Samples were loaded on the polyacrylamide gel and left to run in TRIS-Glycine-SDS running buffer • 10. Once the run was completed the proteins were transferred from the gel to the nitrocellulose membrane by using the Trans-Blot machine (Biorad) • 11. Membrane was washed with 0.1% Tween-TBS buffer and blocked in 5% non-fat milk for 1 hr • 12. Followed incubation with the primary antibody o.n. • 13. The day after, the membrane was washed with 0.1% Tween-TBS buffer for three times for at least 30 mins each • 14. Secondary antibody was then added for 1h • 15. The membrane was the washed with 0.1% Tween-TBS buffer for three times for at least 30 mins each • 16. The signal was developed using ECL solution
This was shown by downregulation of sestrin 1, 2 and 3 expression, and AMPK and MAPK phosphorylation.

[2] = test system: sMAC activation (Sestrin 2, p-p38); test: Titration of DOS46L in senescent CD4+ CD27− CD28− T cells, immunoblot; type: cell-based, human; conditions: within 4 hours of treatment
Description: FIG. 7 illustrates titration of DOS46L. (A-B) CD4+ CD27− CD28− T cells were isolated from PBMCs from healthy donors and treated with increasing doses of DOS46L compound for 4 hours and harvested for immunoblot analysis. (A) Levels of Sestrin 2, p-p38 and H2B were evaluated by immunoblot. (B) Quantification of Sestrin 2 was analysed with Histone 3 as a loading control. Represented are the mean values±SEM of at least three independent experiments. Values are compared using One-Way ANOVA test followed by Tukey's post hoc test. (C-D) CD4+ CD27−CD28− T cells were treated with DOS46L compound (10 uM) for 0.5, 1, 2 and 4 hours and harvested for immunoblot analysis at indicated time points. (C) Levels of Sestrin 1, Sestrin 2, and Sestrin 3 were evaluated by immunoblot. Histone 3 was used as a loading control. (D) Quantification of Sestrin 1, Sestrin 2 and Sestrin 3, with Histone 3 as a loading control. Represented are the mean values±SEM of at least four independent experiments. Values are compared using One-Way ANOVA test followed by Tukey's post hoc test or Student's T-test. *p<0.05, **p<0.01
• 1. CD4+ cells were separated from PBMC using appropriate microbeads kit (Miltenyi) • 2. Cells were resuspended in whole RPMI medium and plated in the 24-multiwell plate • 3. Then activated for 4 hrs with DOS compounds • 4. […]

T cells = test: Seahorse assay for cell metabolism (OCR, FAO); type: cell-based, human; conditions: T cells treated for 24h
Description: Senescent T cells and stem cells were analysed using FACS analysis. (B—C) Represented is the ratio to untreated sample. Each dot is an individual donor. (D) Oxygen Consumption Rate (OCR) of T cells treated with DOS46L for 24h were measured by Seahorse. […] (E) The FAO index was calculated by OCR difference between Ctrl and DOS46L treated T cells in the presence or in the absence of the FAO inhibitor etomoxir by Seahorse. Student's T-test was used to analyse the data. **p<0.01; ***p<0.001.
• 1. CD4+ cells were purified from PBMC using appropriate microbeads (Miltenyi) • 2. Purified CD4+ cells were activated with CD3/CD28 Dynabeads (Gibco) and treated over-night with DOS46L at 10 μM. • 3. Day after, the conventional growth media was removed from the cells and was added the “substrate-limited growth media” composed of basic DMEM plus 0.5 mM glucose, 1 mM glutamine and 1% FBS. • 4. Cells were then incubated with this media for 4 hrs in incubator. • 5. Cells were then counted and plated at the concentration of 2*10^5 cells/well in the XF96 well plate pre-treated with poly-lysine. • 6. Cells were then supplemented with the “assay media” composed of XF DMEM with 2 mM of glucose and 0.5 mM L-carnitine. • 7. […] Seahorse machine took reads of OCR values at different time points for the time span of 120 mins. […] Cells were left in incubator for 12 days and then they were analysed.

[3] = test system: T cells (senescent CD3+ CD4+ CD27− CD28− population); conditions: DOS-FITC 10 μM, 4 hrs
Description: (A-B) CD4+ T cells were isolated from peripheral blood mononuclear cells (PBMCs) from healthy donors and treated with DOS compounds. (A) Representative confocal images of CD4+ T cells stained with DOS-FITC and CD3-AF594. (B) Quantification of DOS46L penetration by flow cytometry in CD4+ CD27-CD28-cells (Tsen) and in CD4+CD27+CD28+ (Terl).
Purified T cells were plated at the concentration 1*10^6 cell/well in 24 well plate • 2. Cells were treated with 10 μM of DOS-FITC for 4 hrs • 3. Then collected and centrifuged at 500 g for 5 mins • 4. Washed two times with ice-cold PBS • 5. Cells were resuspended in 200 ul of PBS and plated in a pre-treated coverslip with poly-lysine • 6. Cells were fixed with 4% of formaldehyde in ice for 20 mins • 7. Washed three times with PBS • 8. Blocked with PBS-BSA 5% • 9. Cells were then incubated with primary antibody (anti-CD3 1:100) overnight at 4 C • 10. Washed three times with PBS • 11. Then incubated with secondary antibody (anti-mouse conjugated with AF-594; 1:250) for 1 hr at room temperature • 12. Washed three times with PBS 13. Cells were permeabilized with Triton 0.25% in PBS for 2 mins • 14. Followed incubation with antibody anti-KDEL (Abcam) and anti-sestrin 2 (Gentex) diluted 1:100 at 4 C over-night • 15. Washed for three times with PBS • 16. […]

CC[C@H](C)[C@@H]1NC(=O)[C@H](Cc2ccccc2)NC(=O)[C@H](C)NC(=O)[C@H](C(C)C)NC(=O)[C@@H]2CCCN2C1=O [DOS46L] (cyclo(AFIPV))
effectiveness at sMAC inactivation among all of the DOS compounds tested [1]: most effective
sMAC pathway silenced [1]: 90%
sestrins inhibited (pan or selective inhibitor) ([1]; CD4+ T cells, 4 hours, FIG. 5 heat-map): inhibit all three sestrins
concentration from which sMAC activation is suppressed [2]: 16 nM
oxidative metabolism and Fatty Acid Oxidation (FAO) (T cells): Induction of Fatty Acid Oxidation (FAO)
cell penetration [3]: able to penetrate T cells

Source: patent publication US20250066423A1, “SESTRIN-MAPK COMPLEX INHIBITORS” (Sentcell Ltd, priority 2021, published 2025)
